Results as given in patent publication EP4098265A1 (priority 2020, dated 2021).
≈ marks a conversion by molar mass, not a printed value. Like-named read-outs stand apart in the source and are kept apart here.

What was measured:
[1] = tested on: human coronavirus NL63(HCoV-NL63); type: cell-based
[2] = tested on: coronaviruses (HCoV-229E and HCoV-OC43); assay: CPE experiment on coronaviruses, single components compared with carrimycin; type: cell-based; conditions: above CPE method
PI3K/Akt/mTOR pathway = type: cell-based
human coronavirus HKU1 = type: cell-based
[3] = tested on: Middle East Respiratory Syndrome Coronavirus (MERS-CoV); type: cell-based; conditions: in vitro
2019-nCoV = assay: Anti-2019-nCoV activity in Vero E6 cells (CPE); conditions: in words
[4] = tested on: severe acute respiratory syndrome coronavirus SARS-CoV; type: cell-based; conditions: in vitro
HCT-8 cells = conditions: human
HCoV-OC43 [5] = assay: Anti-HCoV-OC43 activity in HCT-8 cells (CPE method); type: cell-based
HCoV-229E = assay: Anti-HCoV-229E activity in Huh7.5 cells (CPE method); type: cell-based; conditions: Human coronavirus 229E
HCoV-OC43 [6] = assay: Anti-HCoV-OC43 activity in MRC-5 cells (CPE method); type: cell-based; conditions: for IC50: Betacoronavirus 1, OC43, MRC5, 0 h
MRC-5 cells = conditions: human
[7] = 0h: administration at the same time of infection, read-out: IC50, First batch
[8] = 0h: administration at the same time of infection, read-out: IC50, Second batch
[9] = 2h: administration 2 hours after infection, read-out: IC50, First batch
[10] = 2h: administration 2 hours after infection, read-out: IC50, Second batch

Compound	inhibition activity compared with ribavirin or azithromycin [1]	inhibition activity compared with carrimycin [2]	anti-inflammatory and immunomodulatory effects on PI3K/Akt/mTOR pathway (PI3K/Akt/mTOR pathway)	inhibition activity compared with ribavirin or azithromycin (human coronavirus HKU1)	inhibition activity compared with ribavirin or azithromycin [3]	anti-2109-nCoV activity in vitro (2019-nCoV)	inhibition activity compared with ribavirin or azithromycin [4]	TC50 (HCT-8 cells)	IC50 (HCoV-OC43 [5]; Betacoronavirus 1, OC43, HCT-8 cells, 0h administration, read-out: IC50)	inhibitory effect on the HCoV-OC43 (HCoV-OC43 [5]; HCT-8 cells, 0h administration, in words)	IC50 (HCoV-229E; [7])	IC50 (HCoV-229E; [8])	IC50 (HCoV-229E; [9])	IC50 (HCoV-229E; [10])	IC50 (HCoV-OC43 [6])	inhibitory effect on the HCoV-OC43 (HCoV-OC43 [6]; MRC-5 cells, 0h administration, in words)	TC50 (MRC-5 cells)	IC50 (HCoV-OC43 [5]; Betacoronavirus 1, OC43, HCT-8, 0 h)	IC50 (HCoV-229E; 0h: administration at the same time of infection, read-out: IC50, Mean value)
isovalerylspiramycin II	higher than the inhibition activity of ribavirin or azithromycin	close to the inhibition activities of carrimycin	inhibit the PI3K/Akt/mTOR pathway	higher than the inhibition activity of ribavirin or azithromycin	higher than the inhibition activity of ribavirin or azithromycin	anti-2109-nCoV activities in vitro	higher than the inhibition activity of ribavirin or azithromycin												
CC[C@H]1OC(=O)[C@H](C)[C@@H](O[C@H]2C[C@@](C)(OC)[C@@H](O)[C@H](C)O2)[C@H](C)[C@@H](O[C@@H]2O[C@H](C)C[C@H](N(C)C)[C@H]2O)[C@](C)(O)C[C@@H](C)CN(C)[C@H](C)[C@@H](O)[C@]1(C)O [Azithromycin]								>100 µg/mL	> 100 µg/mL	no inhibitory effect	14.3 µg/mL (≈ 19.1 µM)	19.2 µg/mL (≈ 25.7 µM)	14.3 µg/mL (≈ 19.1 µM)	4.77 µg/mL (≈ 6.37 µM)	> 11.1 µg/mL	no inhibitory effect	48.07 µg/mL (≈ 64.2 µM)		
CCC(=O)O[C@@H]1CC(=O)O[C@H](C)C/C=C/C=C/[C@H](O[C@H]2CC[C@H](N(C)C)[C@@H](C)O2)[C@H](C)C[C@H](CC=O)[C@H](O[C@@H]2O[C@H](C)[C@@H](O[C@H]3C[C@@](C)(O)[C@@H](OC(=O)CC(C)C)[C@H](C)O3)[C@H](N(C)C)[C@H]2O)[C@H]1OC [isovalerylspiramycin III]	higher than the inhibition activity of ribavirin or azithromycin	close to the inhibition activities of carrimycin	inhibit the PI3K/Akt/mTOR pathway	higher than the inhibition activity of ribavirin or azithromycin	higher than the inhibition activity of ribavirin or azithromycin	anti-2109-nCoV activities in vitro	higher than the inhibition activity of ribavirin or azithromycin												
CO[C@@H]1[C@@H](O[C@@H]2O[C@H](C)[C@@H](O[C@H]3C[C@@](C)(O)[C@@H](OC(=O)CC(C)C)[C@H](C)O3)[C@H](N(C)C)[C@H]2O)[C@@H](CC=O)C[C@@H](C)[C@@H](O[C@H]2CC[C@H](N(C)C)[C@@H](C)O2)/C=C/C=C/C[C@@H](C)OC(=O)C[C@H]1O [Isovalerylspiramycin I, isovalerylspiramycin I]	higher than the inhibition activity of ribavirin or azithromycin	higher than the inhibition activity of carrimycin	inhibit the PI3K/Akt/mTOR pathway	higher than the inhibition activity of ribavirin or azithromycin	higher than the inhibition activity of ribavirin or azithromycin	anti-2109-nCoV activities in vitro	higher than the inhibition activity of ribavirin or azithromycin												
NC(=O)c1ncn([C@@H]2O[C@H](CO)[C@@H](O)[C@H]2O)n1 [RBV, Ribavirin]								>100 µg/mL			6.42 µg/mL (≈ 26.3 µM)	7.7 µg/mL (≈ 31.5 µM)	7.7 µg/mL (≈ 31.5 µM)	4.77 µg/mL (≈ 19.5 µM)	63.8 µg/mL (≈ 261 µM)		>100 µg/mL	11.1 µg/mL (≈ 45.5 µM)	7.06 ± 0.91 µg/mL (≈ 28.9 µM)
